Legend:
wheat = assay: Test C pre-/postemergence test; assay type: in vivo, Triticum aestivum
Procedure, shortened: (§1)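 Compounds in a non-phytotoxic solvent with surfactant applied preemergence to seeded pots and, at the same time, postemergence to plants 2–18 cm tall (1- to 4-leaf stage). Paddy tests: pots flooded to 3 cm, compound applied into the water, depth held throughout.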

green foxtail = assay: Test C pre-/postemergence test; assay type: in vivo, Setaria viridis
Procedure, shortened: as §1

[1] = tested on: common (oilseed) sunflower; assay: Test C pre-/postemergence test; assay type: in vivo, Helianthus annuus
Procedure, shortened: as §1

crabgrass = assay: Test A pre-/postemergence greenhouse test; assay type: in vivo, Digitaria sanguinalis; details: for Plant response rating, Crabgrass, Large: 0 to 100 scale where 0 is no effect and 100 is complete control; for Crabgrass, Large plant response rating: 0 to 100 scale
Procedure, shortened: (§2)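 Visual injury ratings against untreated controls, taken roughly ten days after treatment in greenhouse. Plants were sprayed postemergence at one- to two-leaf stage (2–10 cm tall); at the same time, seeded loam/sand soil received a directed preemergence spray. Formulation: non-phytotoxic solvent mixture with surfactant.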

corn = assay: Test C pre-/postemergence test; assay type: in vivo, Zea mays
Procedure, shortened: as §1

common ragweed = assay: Test C pre-/postemergence test; assay type: in vivo, Ambrosia elation
Procedure, shortened: as §1

Italian ryegrass = assay: Test C pre-/postemergence test; assay type: in vivo, Lolium multiflorum
Procedure, shortened: as §1

redroot pigweed = assay: Test A pre-/postemergence greenhouse test; assay type: in vivo, Amaranthus retroflexus; details: for Plant response rating, Pigweed: 0 to 100 scale where 0 is no effect and 100 is complete control; for Pigweed plant response rating: 0 to 100 scale
Procedure, shortened: as §2

morningglory = assay: Test A pre-/postemergence greenhouse test; assay type: in vivo, Ipomoea spp.; details: for Plant response rating, Morningglory: 0 to 100 scale where 0 is no effect and 100 is complete control; for Morningglory plant response rating: 0 to 100 scale
Procedure, shortened: as §2

blackgrass = assay: Test C pre-/postemergence test; assay type: in vivo, Alopecurus myosuroides
Procedure, shortened: as §1

woolly cupgrass = assay: Test C pre-/postemergence test; assay type: in vivo, Eriochloa villosa
Procedure, shortened: as §1

duck salad = assay: Test C flooded paddy test; assay type: in vivo, Heteranthera limosa; details: Flood
Procedure, shortened: (§3)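 Pots were flooded to 3 cm above the soil surface at treatment, compound applied directly to the paddy water, and that depth held throughout. Plants were kept in a greenhouse for 13 to 15 days, then visually rated against untreated controls.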

umbrella sedge = assay: Test C flooded paddy test; assay type: in vivo, Cyperus difformis; details: Flood
Procedure, shortened: as §3

eastern black nightshade = assay: Test C pre-/postemergence test; assay type: in vivo, Solanum ptycanthum
Procedure, shortened: as §1

yellow nutsedge = assay: Test C pre-/postemergence test; assay type: in vivo, Cyperus esculentus
Procedure, shortened: as §1

Goosegrass = assay: Test C pre-/postemergence test; assay type: in vivo, Eleusin indica
Procedure, shortened: as §1

wild oat = assay: Test C pre-/postemergence test; assay type: in vivo, Avena fatua
Procedure, shortened: as §1

[2] = 62 g ai/ha, Preemergence, scale 0 to 100
[3] = 125 g ai/ha, preemergence, scale 0 (no effect) to 100 (complete control)
[4] = Postemergence, 125 g ai/ha, scale 0 to 100, 0 no effect, 100 complete control
[5] = Postemergence, 250 g ai/ha, scale 0 to 100, 0 no effect, 100 complete control
[6] = Preemergence, 31 g ai/ha, scale 0 to 100 (0 no effect, 100 complete control)
[7] = preemergence, 250 g ai/ha, scale 0 (no effect) to 100 (complete control)
[8] = Postemergence, 62 g ai/ha, scale 0 to 100, 0 no effect, 100 complete control
[9] = Postemergence, 500 g ai/ha, 0 is no effect, 100 is complete control
[10] = Preemergence, 125 g ai/ha, 0 no effect, 100 complete control
[11] = 62 g ai/ha, scale 0 to 100 (0 no effect, 100 complete control)
[12] = 250 g ai/ha, scale 0 to 100, 0 no effect, 100 complete control, 13 to 15 days

Cn1nc(C(F)(F)F)c(C[S+]([O-])c2ccc(Cl)c[n+]2[O-])c1OCC(F)(F)F (racemic) [Compound 62]
98: Corn plant response rating (corn; [2]) | Blackgrass plant response rating (blackgrass; [2])
95: Wheat plant response rating (wheat; [7]) | Oat, Wild plant response rating (wild oat; [3])
40: Plant response rating, Wheat (wheat; [6]) | Plant response rating, Foxtail, Green (green foxtail; [4]) | Plant response rating (0 to 100), Blackgrass (blackgrass; Postemergence, 31 g ai/ha) | Plant response rating, Blackgrass (blackgrass; [8]) | Nutsedge, Yellow plant response rating (yellow nutsedge; [2])
60: Plant response rating, Wheat (wheat; [5]) | Plant response rating, Pigweed (redroot pigweed; Postemergence, 125 g ai/ha) | Plant response rating, Blackgrass (blackgrass; [4])
0: Plant response rating (0 to 100), Wheat (wheat; Postemergence, 31 g ai/ha) | Plant response rating (0 to 100), Foxtail, Green (green foxtail; Postemergence, 31 g ai/ha) | Plant response rating (0 to 100), Corn (corn; Postemergence, 31 g ai/ha) | Plant response rating, Corn (corn; [8]) | Plant response rating, Corn (corn; [4]) | Plant response rating (0 to 100), Ragweed (common ragweed; Postemergence, 31 g ai/ha) | Plant response rating (0 to 100), Ragweed (common ragweed; Postemergence, 62 g ai/ha) | Plant response rating, Ragweed (common ragweed; [4]) | Plant response rating, Ragweed (common ragweed; [5]) | Plant response rating (0 to 100), Ryegrass, Italian (Italian ryegrass; Postemergence, 31 g ai/ha) | Plant response rating (0 to 100), Ryegrass, Italian (Italian ryegrass; Postemergence, 62 g ai/ha) | Plant response rating (0 to 100), Cupgrass, Woolly (woolly cupgrass; Postemergence, 31 g ai/ha) | Plant response rating, Cupgrass, Woolly (woolly cupgrass; [8]) | Plant response rating, Cupgrass, Woolly (woolly cupgrass; [4]) | Plant response rating, Cupgrass, Woolly (woolly cupgrass; [6]) | Plant response rating, Sedge, Umbrella (umbrella sedge; [11]) | Plant response rating (0 to 100), Nutsedge, Yellow (yellow nutsedge; Postemergence, 31 g ai/ha) | Plant response rating, Nutsedge, Yellow (yellow nutsedge; [8]) | Plant response rating, Nutsedge, Yellow (yellow nutsedge; [4]) | Plant response rating, Nutsedge, Yellow (yellow nutsedge; [5]) | Plant response rating, Nutsedge, Yellow (yellow nutsedge; [6]) | Plant response rating (0 to 100), Goosegrass (Goosegrass; Postemergence, 31 g ai/ha) | Plant response rating, Goosegrass (Goosegrass; [8]) | Plant response rating (0 to 100), Oat, Wild (wild oat; Postemergence, 31 g ai/ha) | Plant response rating, Oat, Wild (wild oat; [8])
80: Wheat plant response rating (wheat; [3]) | Plant response rating, Foxtail, Green (green foxtail; [5]) | Plant response rating, Foxtail, Green (green foxtail; [6]) | Sunflower plant response rating [1, 3] | Sunflower plant response rating [1, 7] | Plant response rating, Crabgrass, Large (crabgrass; Postemergence, 125 g ai/ha) | Plant response rating, Corn (corn; [6]) | Plant response rating, Ryegrass, Italian (Italian ryegrass; [4]) | Pigweed plant response rating (redroot pigweed; [9]) | Plant response rating, Blackgrass (blackgrass; [5])
50: Plant response rating, Sunflower [1, 6] | Plant response rating, Cupgrass, Woolly (woolly cupgrass; [5]) | Plant response rating, Goosegrass (Goosegrass; [5]) | Plant response rating, Oat, Wild (wild oat; [5])
20: Plant response rating, Foxtail, Green (green foxtail; [8])
30: Plant response rating, Oat, Wild (wild oat; [4])
70: Plant response rating, Ryegrass, Italian (Italian ryegrass; [6]) | Cupgrass, Woolly plant response rating (woolly cupgrass; [2]) | Plant response rating, Ducksalad (duck salad; [11]) | Nutsedge, Yellow plant response rating (yellow nutsedge; [3]) | Plant response rating, Oat, Wild (wild oat; [6])
55: Wheat plant response rating (wheat; [2]) | Plant response rating, Wheat (wheat; [4])
100: Foxtail, Green plant response rating (green foxtail; [2]) | Foxtail, Green plant response rating (green foxtail; [3]) | Foxtail, Green plant response rating (green foxtail; [7]) | Crabgrass, Large plant response rating (crabgrass; [10]) | Plant response rating, Crabgrass, Large (crabgrass; Preemergence, 500 g ai/ha) | Corn plant response rating (corn; [3]) | Corn plant response rating (corn; [7]) | Ragweed plant response rating (common ragweed; [2]) | Ragweed plant response rating (common ragweed; [3]) | Plant response rating, Ragweed (common ragweed; [6]) | Ragweed plant response rating (common ragweed; [7]) | Ryegrass, Italian plant response rating (Italian ryegrass; [7]) | Pigweed plant response rating (redroot pigweed; [10]) | Plant response rating, Pigweed (redroot pigweed; Preemergence, 500 g ai/ha) | Morningglory plant response rating (morningglory; [9]) | Plant response rating, Morningglory (morningglory; Preemergence, 500 g ai/ha) | Blackgrass plant response rating (blackgrass; [3]) | Blackgrass plant response rating (blackgrass; [7]) | Cupgrass, Woolly plant response rating (woolly cupgrass; [3]) | Cupgrass, Woolly plant response rating (woolly cupgrass; [7]) | Plant response rating, Sedge, Umbrella (umbrella sedge; [12]) | Nightshade plant response rating (eastern black nightshade; [2]) | Nightshade plant response rating (eastern black nightshade; [3]) | Plant response rating, Nightshade (eastern black nightshade; [6]) | Nightshade plant response rating (eastern black nightshade; [7]) | Nutsedge, Yellow plant response rating (yellow nutsedge; [7]) | Goosegrass plant response rating (Goosegrass; [2]) | Goosegrass plant response rating (Goosegrass; [3]) | Plant response rating, Goosegrass (Goosegrass; [6]) | Goosegrass plant response rating (Goosegrass; [7]) | Oat, Wild plant response rating (wild oat; [7])
75: Sunflower plant response rating [1, 2]
90: Crabgrass, Large plant response rating (crabgrass; [9]) | Ryegrass, Italian plant response rating (Italian ryegrass; [3]) | Plant response rating, Ryegrass, Italian (Italian ryegrass; [5]) | Plant response rating, Morningglory (morningglory; Postemergence, 125 g ai/ha) | Morningglory plant response rating (morningglory; [10]) | Plant response rating, Blackgrass (blackgrass; [6])
10: Plant response rating (0 to 100), Wheat (wheat; Postemergence, 62 g ai/ha) | Plant response rating, Corn (corn; [5]) | Plant response rating, Goosegrass (Goosegrass; [4])
85: Ryegrass, Italian plant response rating (Italian ryegrass; [2]) | Plant response rating, Ducksalad (duck salad; [12]) | Oat, Wild plant response rating (wild oat; [2])
